# According to the supplement of paper PMC11061612:
# Assays:
# Capivasertib = compound: C1CN(CCC1(C(=O)N[C@@H](CCO)C2=CC=C(C=C2)Cl)N)C3=NC=NC4=C3C=CN4 [Capivasertib]; conditions: max 10 µM
# Procedure, shortened: (§1)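 Cancer cell lines were plated in 1536-well plates in 7.5 μl of DMEM/F12 or RPMI with 10% FBS and kept 24 hours at 37°C and 5% CO2 before 72 hours of dosing, with final DMSO typically 0.2%. CellTiter-Glo 2.0 luminescence measured viability, scaled between blank-well and DMSO-well means. Dose responses were fitted to a two-parameter logistic curve with a non-linear mixed effects model. This fit gives the single-agent IC50.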
# AZD1775 = compound: C=CCn1c(=O)c2cnc(Nc3ccc(N4CCN(C)CC4)cc3)nc2n1-c1cccc(C(C)(C)O)n1 [AZD1775]; conditions: max 3 µM
# Procedure, shortened: as §1
# Trametinib = compound: CC(=O)Nc1cccc(-n2c(=O)n(C3CC3)c(=O)c3c(Nc4ccc(I)cc4F)n(C)c(=O)c(C)c32)c1 [Trametinib]; conditions: max 1 µM
# Procedure, shortened: as §1
# Palbociclib = compound: CC(=O)c1c(C)c2cnc(Nc3ccc(N4CCNCC4)cn3)nc2n(C2CCCC2)c1=O [Palbociclib]; conditions: max 10 µM
# Procedure, shortened: as §1
# AZD1390 = compound: CC(C)n1c(=O)n(C)c2cnc3cc(F)c(-c4ccc(OCCCN5CCCCC5)nc4)cc3c21 [AZD1390]; conditions: max 0.3 µM
# Procedure, shortened: as §1
# Venetoclax = compound: CC1(C)CCC(CN2CCN(c3ccc(C(=O)NS(=O)(=O)c4ccc(NCC5CCOCC5)c([N+](=O)[O-])c4)c(Oc4cnc5[nH]ccc5c4)c3)CC2)=C(c2ccc(Cl)cc2)C1 [Venetoclax]; conditions: max 1 µM
# Procedure, shortened: as §1
# Dasatinib = compound: CC1=C(C(=CC=C1)Cl)NC(=O)C2=CN=C(S2)NC3=CC(=NC(=N3)C)N4CCN(CC4)CCO [Dasatinib]; conditions: max 2 µM
# Procedure, shortened: as §1
# SG3199 = compound: CC1=CN2[C@@H](C1)C=NC3=CC(=C(C=C3C2=O)OC)OCCCCCOC4=C(C=C5C(=C4)N=C[C@@H]6CC(=CN6C5=O)C)OC [SG3199]; conditions: max 0.001 µM
# Procedure, shortened: as §1
# AZD2811 = compound: CCN(CCO)CCCOc1ccc2c(Nc3cc(CC(=O)Nc4cccc(F)c4)[nH]n3)ncnc2c1 [AZD2811]; conditions: max 1 µM
# Procedure, shortened: as §1
# SN-38 = compound: CCc1c2c(nc3ccc(O)cc13)-c1cc3c(c(=O)n1C2)COC(=O)[C@]3(O)CC [SN-38]; conditions: max 0.3 µM
# Procedure, shortened: as §1
# AZD0156 = compound: CN(C)CCCOc1ccc(-c2ccc3ncc4c(c3c2)n(C2CCOCC2)c(=O)n4C)cn1 [AZD0156]; conditions: max 3 µM
# Procedure, shortened: as §1
# AZD4320 = compound: CN(CC[C@H](CSC1=CC=CC=C1)NC2=C(C=C(C=C2)S(=O)(=O)NC(=O)C3=CC=C(C=C3)N4CCC(CC4)[C@H](C5=CC=CC=C5C6=CC=C(C=C6)Cl)O)S(=O)(=O)C(F)(F)F)CCO [AZD4320]; conditions: max 1 µM
# Procedure, shortened: as §1
# Alisertib = compound: COc1cc(Nc2ncc3c(n2)-c2ccc(Cl)cc2C(c2c(F)cccc2OC)=NC3)ccc1C(=O)O [Alisertib]; conditions: max 10 µM
# Procedure, shortened: as §1
# Gefitinib = compound: COc1cc2ncnc(Nc3ccc(F)c(Cl)c3)c2cc1OCCCN1CCOCC1 [Gefitinib]; conditions: max 10 µM
# Procedure, shortened: as §1
# Prexasertib = compound: COc1cccc(OCCCN)c1-c1cc(Nc2cnc(C#N)cn2)n[nH]1 [Prexasertib]; conditions: max 1 µM
# Procedure, shortened: as §1
# Doxorubicin = compound: COc1cccc2c1C(=O)c1c(O)c3c(c(O)c1C2=O)C[C@@](O)(C(=O)CO)C[C@@H]3O[C@H]1C[C@H](N)[C@H](O)[C@H](C)O1 [Doxorubicin]; conditions: max 1 µM
# Procedure, shortened: as §1
# AZD5153 = compound: COc1nnc2ccc(N3CCC(c4ccc(OCCN5CCN(C)C(=O)[C@H]5C)cc4)CC3)nn12 [AZD5153]; conditions: max 1 µM
# Procedure, shortened: as §1
# Lapatinib = compound: CS(=O)(=O)CCNCc1ccc(-c2ccc3ncnc(Nc4ccc(OCc5cccc(F)c5)c(Cl)c4)c3c2)o1 [Lapatinib]; conditions: max 10 µM
# Procedure, shortened: as §1
# AZD8186 = compound: C[C@@H](Nc1cc(F)cc(F)c1)c1cc(C(=O)N(C)C)cc2c(=O)cc(N3CCOCC3)oc12 [AZD8186]; conditions: max 3 µM
# Procedure, shortened: as §1
# Crizotinib = compound: C[C@@H](Oc1cc(-c2cnn(C3CCNCC3)c2)cnc1N)c1c(Cl)ccc(F)c1Cl [Crizotinib]; conditions: max 10 µM
# Procedure, shortened: as §1
# Savolitinib = compound: C[C@@H](c1ccc2nccn2c1)n1nnc2ncc(-c3cnn(C)c3)nc21 [Savolitinib]; conditions: max 1 µM
# Procedure, shortened: as §1
# AZD6738 = compound: C[C@@H]1COCCN1C2=NC(=NC(=C2)C3(CC3)[S@](=N)(=O)C)C4=C5C=CNC5=NC=C4 [AZD6738]; conditions: max 10 µM
# Procedure, shortened: as §1
# AZD5991 = compound: Cc1c2c(nn1C)CSCc1cc(n(C)n1)CSc1cc(c3ccccc3c1)OCCCc1c(C(=O)O)n(C)c3c-2c(Cl)ccc13 [AZD5991]; conditions: max 1 µM
# Procedure, shortened: as §1
# AZD7648 = compound: Cc1cc2ncnn2cc1Nc1ncc2c(n1)n(C1CCOCC1)c(=O)n2C [AZD7648]; conditions: max 10 µM
# Procedure, shortened: as §1
# Taselisib = compound: Cc1nc(-c2cn3c(n2)-c2ccc(-c4cnn(C(C)(C)C(N)=O)c4)cc2OCC3)n(C(C)C)n1 [Taselisib]; conditions: max 10 µM
# Procedure, shortened: as §1
# Selumetinib = compound: Cn1cnc2c(F)c(Nc3ccc(Br)cc3Cl)c(C(=O)NOCCO)cc21 [Selumetinib]; conditions: max 10 µM
# Procedure, shortened: as §1
# MK-2206 = compound: NC1(c2ccc(-c3nc4ccn5c(=O)[nH]nc5c4cc3-c3ccccc3)cc2)CCC1 [MK-2206]; conditions: max 10 µM
# Procedure, shortened: as §1
# Olaparib = compound: O=C(c1cc(Cc2n[nH]c(=O)c3ccccc23)ccc1F)N1CCN(C(=O)C2CC2)CC1 [Olaparib]; conditions: max 10 µM
# Procedure, shortened: as §1
Cell Line,"IC50, cell viability 72 h (Capivasertib) [µM]","IC50, cell viability 72 h (AZD1775) [µM]","IC50, cell viability 72 h (Trametinib) [µM]","IC50, cell viability 72 h (Palbociclib) [µM]","IC50, cell viability 72 h (AZD1390) [µM]","IC50, cell viability 72 h (Venetoclax) [µM]","IC50, cell viability 72 h (Dasatinib) [µM]","IC50, cell viability 72 h (SG3199) [µM]","IC50, cell viability 72 h (AZD2811) [µM]","IC50, cell viability 72 h (SN-38) [µM]","IC50, cell viability 72 h (AZD0156) [µM]","IC50, cell viability 72 h (AZD4320) [µM]","IC50, cell viability 72 h (Alisertib) [µM]","IC50, cell viability 72 h (Gefitinib) [µM]","IC50, cell viability 72 h (Prexasertib) [µM]","IC50, cell viability 72 h (Doxorubicin) [µM]","IC50, cell viability 72 h (AZD5153) [µM]","IC50, cell viability 72 h (Lapatinib) [µM]","IC50, cell viability 72 h (AZD8186) [µM]","IC50, cell viability 72 h (Crizotinib) [µM]","IC50, cell viability 72 h (Savolitinib) [µM]","IC50, cell viability 72 h (AZD6738) [µM]","IC50, cell viability 72 h (AZD5991) [µM]","IC50, cell viability 72 h (AZD7648) [µM]","IC50, cell viability 72 h (Taselisib) [µM]","IC50, cell viability 72 h (Selumetinib) [µM]","IC50, cell viability 72 h (MK-2206) [µM]","IC50, cell viability 72 h (Olaparib) [µM]"
B-CPAP (Thyroid Gland Carcinoma),> 10,1.42,> 1,> 10,> 0.3,> 1,0.324,> 0.001,> 1,0.025,> 3,> 1,6.62,> 10,0.149,0.608,0.379,> 10,> 3,> 10,> 1,> 10,> 1,> 10,> 10,> 10,> 10,> 10
HCC1806 (Breast Carcinoma),> 10,0.271,> 1,> 10,> 0.3,> 1,0.414,> 0.001,> 1,0.0121,> 3,> 1,> 10,> 10,0.00618,0.258,0.301,6.2,> 3,9.23,> 1,1.08,> 1,> 10,7.68,> 10,> 10,> 10
HuP-T4 (Pancreatic Carcinoma),> 10,1,> 1,> 10,> 0.3,> 1,> 2,> 0.001,> 1,0.0087,> 3,> 1,> 10,> 10,0.175,0.946,> 1,> 10,> 3,> 10,> 1,> 10,> 1,> 10,> 10,> 10,–,> 10
KP-1N (Pancreatic Carcinoma),> 10,> 3,> 1,> 10,> 0.3,> 1,> 2,> 0.001,> 1,> 0.3,> 3,> 1,> 10,> 10,> 1,> 1,> 1,> 10,> 3,> 10,> 1,> 10,> 1,> 10,> 10,> 10,–,> 10
KYSE-520 (Esophageal Squamous Cell Carcinoma),> 10,> 3,0.181,> 10,> 0.3,> 1,0.233,> 0.001,> 1,> 0.3,> 3,> 1,> 10,3.92,0.116,> 1,0.278,3.08,> 3,> 10,> 1,> 10,> 1,> 10,1.25,> 10,–,> 10
LNCaP-Clone-FGC (Prostate Carcinoma),0.134,0.811,> 1,> 10,> 0.3,> 1,> 2,> 0.001,> 1,0.0308,> 3,> 1,> 10,> 10,0.0356,0.17,0.0944,> 10,0.129,8.7,> 1,3.58,> 1,> 10,0.957,> 10,–,> 10
LU-135 (Small Cell Lung Carcinoma),> 10,1.84,> 1,> 10,> 0.3,> 1,> 2,> 0.001,0.0257,0.0279,> 3,0.0176,0.317,> 10,0.343,0.214,0.0661,9.73,> 3,2.59,> 1,6.1,> 1,> 10,> 10,> 10,–,> 10
